{
  "source": "patent US7129392B2",
  "about": "“Materials and methods for increasing isoprenoid production in cells” (priority 2000, dated 2006)",
  "key": {"[1]": {"test_system": "E. coli TOP10 F′", "assay": "Growth of E. coli control cells on medium containing fosmidomycin", "assay_type": "cell-based", "conditions": "TOP10 F′ transformed with parent vectors; LB or LB/IPTG with fosmidomycin 20 μg/ml", "procedure": "Single colonies of TOP10 F′/pHKO2 (designated strain HK6), TOP10 F′/pHKO3 (designated strain HK7), and TOP10 F′/pHKO9 (designated strain HK8), are used to individually inoculate 4 ml LB/amp cultures and grown overnight at 30° C., 225 rpm. The HK6 and HK7 cultures are serially diluted 10,000 to 100,000-fold and plated on LB containing fosmidomycin (20 μg/ml)."}, "[2]": {"target": "DXP reductoisomerase (Escherichia coli, UniProt P45568)", "sequence (P45568 whole entry)": "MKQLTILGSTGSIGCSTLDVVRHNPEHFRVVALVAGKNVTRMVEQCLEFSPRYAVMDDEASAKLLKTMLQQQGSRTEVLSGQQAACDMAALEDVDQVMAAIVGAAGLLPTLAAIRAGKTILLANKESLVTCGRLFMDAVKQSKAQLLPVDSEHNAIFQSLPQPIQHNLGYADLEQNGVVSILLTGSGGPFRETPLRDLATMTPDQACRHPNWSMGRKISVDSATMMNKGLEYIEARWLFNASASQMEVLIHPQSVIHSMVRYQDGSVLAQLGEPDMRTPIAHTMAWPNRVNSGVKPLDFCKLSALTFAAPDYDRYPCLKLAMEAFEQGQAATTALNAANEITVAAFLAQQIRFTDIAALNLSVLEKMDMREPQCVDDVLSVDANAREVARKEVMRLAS", "conditions": "Kuzuyama et al., 1998; cited from earlier work"}, "[3]": {"conditions": "especially in combination with other herbicides; Kamuro et al.; cited from earlier work"}, "[4]": {"test_system": "Nicotiana tabacum var. ‘Xanthi NC’ leaf sections", "assay": "Toxicity of fosmidomycin to tobacco grown on medium", "conditions": "after three weeks of growth on medium"}},
  "data": [
    {"smiles": "O=CN(O)CCCP(=O)(O)O", "note": "[fosmidomycin]", "values": [
      {"measurement": "growth of E. coli control cells on medium containing fosmidomycin", "setting": "[1]", "value": "unable to grow"},
      {"measurement": "inhibition of the enzyme DXP reductoisomerase", "setting": "[2]", "value": "specific inhibitor"},
      {"measurement": "herbicidal activity", "setting": "[3]", "value": "significant herbicidal activity"},
      {"measurement": "fosmidomycin concentration at which toxicity is evident in tobacco", "setting": "[4]", "value": "at least 500 micromolar"}
    ]}
  ]
}
